According to patent US8192962B2, “Processes for detecting toxic substances” (Daikin Industries, Ltd., priority 2001, dated 2012):

Tested on: Mitochondria-located protein genes
Assay: DNA chip mRNA expression in yeast, mitochondria-located protein genes (Table 2)
Type: cell-based, Saccharomyces cerevisiae S288C
Conditions: cells incubated two hours with the chemical substance
Method: Yeast (Saccharomyces cerevisiae S288C (α SUC2mal mel gap2 CUP1)) were incubated at 25° C. on YPD medium (yeast extract 1%, polypepton 2%, glucose 2%). One of toxic chemical substances was added to the cells at logarithmic growth phase, and the cells were further incubated for two hours. Cells were cultured without any chemical substance in the same condition, and were used as control. Concentrations of the chemical substances were defined to inhibit the growth of the yeast but not lead to death.
After completion of the incubation, the culture was centrifuged to collect the cells. To the cells, sodium acetate buffer (50 mM sodium acetate, 10 mM EDTA, 1% SDS) was added, and the mixture was shaken at 65° C. for five minutes, followed by returning to room temperature, and obtaining the supernatant, of which the procedures were repeated two times. To the supernatant, ½ amount of a solution of phenol/chloroform was added, and the mixture was centrifuged to give a supernatant, which was added with an equal amount of chloroform, and the mixture was centrifuged to give a supernatant. To the supernatant, an equal amount of isopropanol containing 0.3 M sodium acetate was added, and the mixture was allowed to stand at room temperature for 30 minutes, after which the mixture was centrifuged to give a sediment of the whole RNAs. Seventy % ethanol was added to the sediment, and the mixture was again centrifuged to give a sediment, which was then dried and dissolved in water. mRNA was isolated from the whole RNAs as followings. In view of the fact that a poly A chain is attached to the 3′ terminus of mRNA, a polynucleotide having a poly T structure which was immobilized on the surface of latex beads was used to trap the mRNA, and then the mRNA was washed and eluted with spine column (Oligotex-dT30<Super>mRNA Purification Kit, Takara). Reverse transcription of the mRNA was conducted with a reverse transcriptase (Super Script II Reverse Transcriptase; catalogue No. 18064-014, GibcoBRL) using fluorescence-labeled nucleotides to give cDNAs that were introduced with Cy3-dUTP or Cy5-dUTP during the reverse transcription.
The labeled cDNAs were dissolved in TE buffer (10mM Tris-HCl/1 mM EDTA, pH8.0), and the solution was dropped on the DNA chip containing the whole genes of yeast (DNA Chip Research Inc. Japan) so that the cDNAs were hybridized on the DNA chip at 65° C. for over 12 hours. The fluoresces intensity of the DNA chip was read with a scanner, and the ratio relative to the fluorescence intensity resulting from the absence of chemical substance was estimated as the following, which is shown in Tables 1 to 9: […]

CN(C)C(=S)SSC(=S)N(C)C [(10), Tetramethylthiuram disulfide]
The level of expressed mRNA in the presence of chemical substance/The level of expressed mRNA in the absence of chemical substance (yeast gene YAL039C): 2.2 | The level of expressed mRNA in the presence of chemical substance/The level of expressed mRNA in the absence of chemical substance (yeast gene YBL022C): 1.2 | The level of expressed mRNA in the presence of chemical substance/The level of expressed mRNA in the absence of chemical substance (yeast gene YBL030C): 0.9 | The level of expressed mRNA in the presence of chemical substance/The level of expressed mRNA in the absence of chemical substance (yeast gene YBL038W): 1.5 | The level of expressed mRNA in the presence of chemical substance/The level of expressed mRNA in the absence of chemical substance (yeast gene YBL099W): 0.7 | The level of expressed mRNA in the presence of chemical substance/The level of expressed mRNA in the absence of chemical substance (yeast gene YBR003W): 1.3 | The level of expressed mRNA in the presence of chemical substance/The level of expressed mRNA in the absence of chemical substance (yeast gene YBR044C): 1.2 | The level of expressed mRNA in the presence of chemical substance/The level of expressed mRNA in the absence of chemical substance (yeast gene YBR091C): 1.6 | The level of expressed mRNA in the presence of chemical substance/The level of expressed mRNA in the absence of chemical substance (yeast gene YBR122C): 1.4 | The level of expressed mRNA in the presence of chemical substance/The level of expressed mRNA in the absence of chemical substance (yeast gene YBR185C): 1.6 | The level of expressed mRNA in the presence of chemical substance/The level of expressed mRNA in the absence of chemical substance (yeast gene YBR221C): 1.3 | The level of expressed mRNA in the presence of chemical substance/The level of expressed mRNA in the absence of chemical substance (yeast gene YBR251W): 1.1 | The level of expressed mRNA in the presence of chemical substance/The level of expressed mRNA in the absence of chemical substance (yeast gene YBR282W): 0.9 | The level of expressed mRNA in the presence of chemical substance/The level of expressed mRNA in the absence of chemical substance (yeast gene YCL057W): 2.1 | The level of expressed mRNA in the presence of chemical substance/The level of expressed mRNA in the absence of chemical substance (yeast gene YCR046C): 1.4 | The level of expressed mRNA in the presence of chemical substance/The level of expressed mRNA in the absence of chemical substance (yeast gene YCR083W): 1.8 | The level of expressed mRNA in the presence of chemical substance/The level of expressed mRNA in the absence of chemical substance (yeast gene YDL067C): 0.9 | The level of expressed mRNA in the presence of chemical substance/The level of expressed mRNA in the absence of chemical substance (yeast gene YDL181W): 0.8 | The level of expressed mRNA in the presence of chemical substance/The level of expressed mRNA in the absence of chemical substance (yeast gene YDL198C): 2.7 | The level of expressed mRNA in the presence of chemical substance/The level of expressed mRNA in the absence of chemical substance (yeast gene YDR079W): 0.8 | The level of expressed mRNA in the presence of chemical substance/The level of expressed mRNA in the absence of chemical substance (yeast gene YDR178W): 0.8 | The level of expressed mRNA in the presence of chemical substance/The level of expressed mRNA in the absence of chemical substance (yeast gene YDR231C): 1.4 | The level of expressed mRNA in the presence of chemical substance/The level of expressed mRNA in the absence of chemical substance (yeast gene YDR258C): 13.3 | The level of expressed mRNA in the presence of chemical substance/The level of expressed mRNA in the absence of chemical substance (yeast gene YDR298C): 1.6 | The level of expressed mRNA in the presence of chemical substance/The level of expressed mRNA in the absence of chemical substance (yeast gene YDR347W): 1.6 | The level of expressed mRNA in the presence of chemical substance/The level of expressed mRNA in the absence of chemical substance (yeast gene YDR377W): 0.9 | The level of expressed mRNA in the presence of chemical substance/The level of expressed mRNA in the absence of chemical substance (yeast gene YDR529C): 0.6 | The level of expressed mRNA in the presence of chemical substance/The level of expressed mRNA in the absence of chemical substance (yeast gene YEL024W): 0.6 | The level of expressed mRNA in the presence of chemical substance/The level of expressed mRNA in the absence of chemical substance (yeast gene YEL039C): 1.2 | The level of expressed mRNA in the presence of chemical substance/The level of expressed mRNA in the absence of chemical substance (yeast gene YER178W): 1.3 | The level of expressed mRNA in the presence of chemical substance/The level of expressed mRNA in the absence of chemical substance (yeast gene YFL016C): 2.9 | The level of expressed mRNA in the presence of chemical substance/The level of expressed mRNA in the absence of chemical substance (yeast gene YGL018C): 1.4 | The level of expressed mRNA in the presence of chemical substance/The level of expressed mRNA in the absence of chemical substance (yeast gene YGL187C): 0.6 | The level of expressed mRNA in the presence of chemical substance/The level of expressed mRNA in the absence of chemical substance (yeast gene YGL191W): 1.3 | The level of expressed mRNA in the presence of chemical substance/The level of expressed mRNA in the absence of chemical substance (yeast gene YGR008C): 2.4 | The level of expressed mRNA in the presence of chemical substance/The level of expressed mRNA in the absence of chemical substance (yeast gene YGR028W): 2.0 | The level of expressed mRNA in the presence of chemical substance/The level of expressed mRNA in the absence of chemical substance (yeast gene YGR062C): 1.4 | The level of expressed mRNA in the presence of chemical substance/The level of expressed mRNA in the absence of chemical substance (yeast gene YGR076C): 1.8 | The level of expressed mRNA in the presence of chemical substance/The level of expressed mRNA in the absence of chemical substance (yeast gene YGR082W): 0.9 | The level of expressed mRNA in the presence of chemical substance/The level of expressed mRNA in the absence of chemical substance (yeast gene YGR174C): 0.7 | The level of expressed mRNA in the presence of chemical substance/The level of expressed mRNA in the absence of chemical substance (yeast gene YGR244C): 1.1 | The level of expressed mRNA in the presence of chemical substance/The level of expressed mRNA in the absence of chemical substance (yeast gene YHR008C): 2.4 | The level of expressed mRNA in the presence of chemical substance/The level of expressed mRNA in the absence of chemical substance (yeast gene YIL155C): 2.9 | The level of expressed mRNA in the presence of chemical substance/The level of expressed mRNA in the absence of chemical substance (yeast gene YJL096W): 1.4 | The level of expressed mRNA in the presence of chemical substance/The level of expressed mRNA in the absence of chemical substance (yeast gene YJL102W): 2.2 | The level of expressed mRNA in the presence of chemical substance/The level of expressed mRNA in the absence of chemical substance (yeast gene YJL133W): 1.4 | The level of expressed mRNA in the presence of chemical substance/The level of expressed mRNA in the absence of chemical substance (yeast gene YJL166W): 1.2 | The level of expressed mRNA in the presence of chemical substance/The level of expressed mRNA in the absence of chemical substance (yeast gene YJL180C): 1.4 | The level of expressed mRNA in the presence of chemical substance/The level of expressed mRNA in the absence of chemical substance (yeast gene YJR045C): 3.0 | The level of expressed mRNA in the presence of chemical substance/The level of expressed mRNA in the absence of chemical substance (yeast gene YJR077C): 0.7
